SMILES strings stand for the structures.

For assay [1], the system named is larva of Cnaphalocrocis medinalis Guenee. Description: Test against larva of Cnaphalocrocis medinalis Guenee (sprayed paddy rice foliage). It counts as in vivo. The settings on record: 20 ppm concentration of the active component; second instar larvae; counted after 7 days; 25° C. The procedure:
Paddy rice (variety: Tamanishiki) planted in a pot was treated by spraying 50 ml per pot of the diluted aqueous solution of the prescribed concentration of the active compound prepared in the same manner as in the above-mentioned Biological Test Example 1. After the treated rice plant was dried in the air, their foliage part was cut in 4-5 cm length, which were put in a dish with 9 cm diameter with a sheet of filter paper and 2 ml of water. Five larvae of Cnaphalocrocis medinalis Guenee at the second instar were put in the dish that was placed in a room at the constant temperature of 25° C. After 2 and 4 days, each rest (each ⅓ amount) of foliage parts of rice plant were cut in the same manner and added to the dish. After 7 days the number of dead larvae was counted and the rate of death was calculated. In this test the results of 2 dishes at 1 section were averaged.

Assay [2] concerns larva of Spodoptera litura. Description: Test against larva of Spodoptera litura (leaf dip, sweet potato leaves). Format: in vivo. Conditions: 20 ppm concentration of the active component; third instar larvae; counted after 7 days; 25° C. The procedure: Preparation of Test Solution:
In order to make an appropriate formulation of an active compound, 1 part by weight of the active compound was mixed with the above-mentioned amount of solvent containing the above-mentioned amount of emulsifier and the mixture was diluted with water to a prescribed concentration.
Leaves of sweet potato were soaked in the test solution diluted to a prescribed concentration with water, dried in the air and put in a dish of 9 cm diameter.
10 larvae of Spodoptera litura at the third instar were placed on the leaves and kept in a room at the constant temperature of 25° C. After 2 and 4 days further leaves of sweet potato were added and after 7 days the number of dead larvae was counted and the rate of death was calculated.
In this test the results of 2 dishes at 1 section were averaged.

As to `CSCC(C)NC(=O)c1c(I)cccc1C(=O)Nc1ccc(Cn2c(C(F)(F)F)nnc2C(F)(F)F)cc1C` (stereo not drawn) [compound 299], the “controlling effect, rate of death” value in assay [1] and in assay [2] was 100% each time.

In the case of `CSCC(C)(C)NC(=O)c1c(I)cccc1C(=O)Nc1ccc(Oc2nc(C(F)(F)F)cc(C(F)(F)F)n2)cc1C` [compound 308], the “controlling effect, rate of death” value in assay [1] and in assay [2] was 100% each time.

`Cc1cc(Oc2nc(C(F)(F)F)cc(C(F)(F)F)n2)ccc1NC(=O)c1cccc(I)c1C(=O)NC(C)(C)CS(C)(=O)=O` [compound 310]: the “controlling effect, rate of death” value in assay [1] and in assay [2] was 100% in each case.

Take `CSCC(C)NC(=O)c1c(Cl)cccc1C(=O)Nc1ccc(-n2nc(C(F)(F)F)cc2C(F)(F)F)cc1C` (stereo not drawn) [compound 318]: the “controlling effect, rate of death” value in assay [1] and in assay [2] was 100% in each case.

With `Cc1cc(-n2nc(C(F)(F)F)cc2C(F)(F)F)ccc1NC(=O)c1cccc(Cl)c1C(=O)NC(C)CS(C)(=O)=O` (stereo not drawn) [compound 322], the “controlling effect, rate of death” value in assay [1] and in assay [2] was 100% in each case.

For `CSCC(C)NC(=O)c1c(I)cccc1C(=O)Nc1ccc(-n2nc(C(F)(F)F)cc2C(F)(F)F)cc1C` (stereo not drawn) [compound 413], the “controlling effect, rate of death” value in assay [1] and in assay [2] was 100% in each case.

Consider `CSCC(C)NC(=O)c1c(I)cccc1C(=O)Nc1ccc(-n2nc(C(F)(F)F)cc2C(F)(F)F)cc1C` (stereo not drawn) [compound 414], for which the “controlling effect, rate of death” value in assay [1] and in assay [2] was 100% throughout.

As to `Cc1cc(-n2nc(C(F)(F)F)cc2C(F)(F)F)ccc1NC(=O)c1cccc(I)c1C(=O)NC(C)CS(C)(=O)=O` (stereo not drawn) [compound 417], the “controlling effect, rate of death” value in assay [1] and in assay [2] was 100% in each case.

Take `CSCC(C)(C)NC(=O)c1c(I)cccc1C(=O)Nc1ccc(-n2nccc2C(F)(F)C(F)(F)F)cc1C` [compound 422]: the “controlling effect, rate of death” value in assay [1] and in assay [2] was 100% each time.

For `CSCC(C)(C)NC(=O)c1c(I)cccc1C(=O)Nc1ccc(-n2ccc(C(F)(F)C(F)(F)F)n2)cc1C` [compound 434], the “controlling effect, rate of death” value in assay [1] and in assay [2] was 100% in each case.

With `Cc1cc(-n2cc(C(F)(F)C(F)(F)F)cn2)ccc1NC(=O)c1cccc(I)c1C(=O)NC(C)(C)CS(C)(=O)=O` [compound 448], the “controlling effect, rate of death” value in assay [1] and in assay [2] was 100% in each case.

Consider `CSCC(C)NC(=O)c1c(I)cccc1C(=O)Nc1ccc(-n2nc(C(F)(F)C(F)(F)F)cc2C(F)(F)F)cc1C` (stereo not drawn) [compound 473], for which the “controlling effect, rate of death” value in assay [1] and in assay [2] was 100% in each case.

In the case of `Cc1cc(-n2nc(C(F)(F)C(F)(F)F)cc2C(F)(F)F)ccc1NC(=O)c1cccc(I)c1C(=O)NC(C)CS(C)(=O)=O` (stereo not drawn) [compound 475], the “controlling effect, rate of death” value in assay [1] and in assay [2] was 100% each time.

Consider `CSC[C@H](C)NC(=O)c1c(OS(C)(=O)=O)cccc1C(=O)Nc1ccc(-n2nc(C(F)(F)F)cc2C(F)(F)F)cc1C` [compound 492], for which the “controlling effect, rate of death” value in assay [1] and in assay [2] was 100% each time.

With `CSCC(C)NC(=O)c1c(I)cccc1C(=O)Nc1ccc(-c2cc(C(F)(F)F)nn2CC(F)(F)F)cc1C` (stereo not drawn) [compound 506], the “controlling effect, rate of death” value in assay [1] and in assay [2] was 100% in each case.

`Cc1cc(-c2cc(C(F)(F)F)nn2CC(F)(F)F)ccc1NC(=O)c1cccc(I)c1C(=O)NC(C)CS(C)(=O)=O` (stereo not drawn) [compound 508]: the “controlling effect, rate of death” value in assay [1] and in assay [2] was 100% each time.

On to `CSCC(C)NC(=O)c1c(I)cccc1C(=O)Nc1ccc(-c2cc(C(F)(F)F)nn2C(F)F)cc1C` (stereo not drawn) [compound 512], for which the “controlling effect, rate of death” value in assay [1] and in assay [2] was 100% throughout.

For `CSCC(C)NC(=O)c1c(I)cccc1C(=O)Nc1ccc(-c2cc(OC(F)F)n(C(F)F)n2)cc1C` (stereo not drawn) [compound 518], the “controlling effect, rate of death” value in assay [1] and in assay [2] was 100% in each case.

Regarding `Cc1cc(-c2cc(OC(F)F)n(C(F)F)n2)ccc1NC(=O)c1cccc(I)c1C(=O)NC(C)CS(C)(=O)=O` (stereo not drawn) [compound 520], the “controlling effect, rate of death” value in assay [1] and in assay [2] was 100% each time.

As for `Cc1cc(Cn2nc(C(F)(F)F)cc2C(F)(F)F)ccc1NC(=O)c1cccc(I)c1C(=O)N[C@@H](C)CSC(C)C` [compound 539], the “controlling effect, rate of death” value in assay [1] and in assay [2] was 100% in each case.

For the compound `CSC[C@H](C)NC(=O)c1c(C(=O)Nc2ccc(Cn3nc(C(F)(F)F)cc3C(F)(F)F)cc2C)cccc1[N+](=O)[O-]` [compound 543], the “controlling effect, rate of death” value in assay [1] and in assay [2] was 100% in each case.

Consider `Cc1cc(Cn2nc(C(F)(F)F)cc2C(F)(F)F)ccc1NC(=O)c1cccc([N+](=O)[O-])c1C(=O)N[C@@H](C)C[S+](C)[O-]` (stereo partly drawn) [compound 544], for which the “controlling effect, rate of death” value in assay [1] and in assay [2] was 100% in each case.

As to `Cc1cc(Cn2nc(C(F)(F)F)cc2C(F)(F)F)ccc1NC(=O)c1cccc([N+](=O)[O-])c1C(=O)N[C@@H](C)CS(C)(=O)=O` [compound 545], the “controlling effect, rate of death” value in assay [1] and in assay [2] was 100% each time.

For the compound `CSC[C@H](C)NC(=O)c1c(C(=O)Nc2ccc(Cn3nc(C(F)(F)F)nc3C(F)(F)F)cc2C)cccc1[N+](=O)[O-]` [compound 546], the “controlling effect, rate of death” value in assay [1] and in assay [2] was 100% throughout.

With `Cc1cc(Cn2nc(C(F)(F)F)nc2C(F)(F)F)ccc1NC(=O)c1cccc([N+](=O)[O-])c1C(=O)N[C@@H](C)C[S+](C)[O-]` (stereo partly drawn) [compound 547], the “controlling effect, rate of death” value in assay [1] and in assay [2] was 100% each time.

As to `Cc1cc(Cn2nc(C(F)(F)F)nc2C(F)(F)F)ccc1NC(=O)c1cccc([N+](=O)[O-])c1C(=O)N[C@@H](C)CS(C)(=O)=O` [compound 548], the “controlling effect, rate of death” value in assay [1] and in assay [2] was 100% in each case.

For the compound `CSC[C@H](C)NC(=O)c1c(F)cccc1C(=O)Nc1ccc(Cn2nc(C(F)(F)F)cc2C(F)(F)F)cc1C` [compound 549, N^1-{4-[3,5-bis(trifluoromethyl)-1H-pyrazol-1-ylmethyl]-2-methylphenyl}-3-fluoro-N^2-[1-(S)-1-methyl-2-methylsulfanyl-ethyl]-phthalamide], the “controlling effect, rate of death” value in assay [1] and in assay [2] was 100% in each case.

In the case of `CSC[C@H](C)NC(=O)c1c(C(=O)Nc2ccc(Cn3nc(C(F)(F)F)cc3C(F)(F)F)cc2C)cccc1S(C)(=O)=O` [compound 552], the “controlling effect, rate of death” value in assay [1] and in assay [2] was 100% each time.

As for `CSC[C@H](C)NC(=O)c1c(I)cccc1C(=O)Nc1ccc(Cn2nc(C(F)(F)F)c(I)c2C(F)(F)F)cc1C` [compound 554], the “controlling effect, rate of death” value in assay [1] and in assay [2] was 100% throughout.

Take `CSC[C@H](C)NC(=O)c1c(Cl)cccc1C(=O)Nc1ccc(C(C)n2nc(C(F)(F)F)cc2C(F)(F)F)cc1C` (stereo partly drawn) [compound 559]: the “controlling effect, rate of death” value in assay [1] and in assay [2] was 100% throughout.

Turning to `Cc1cc(C(C)n2nc(C(F)(F)F)cc2C(F)(F)F)ccc1NC(=O)c1cccc(Cl)c1C(=O)N[C@@H](C)CS(C)(=O)=O` (stereo partly drawn) [compound 561], the “controlling effect, rate of death” value in assay [1] and in assay [2] was 100% each time.

On to `CSC[C@H](C)NC(=O)c1c(I)cccc1C(=O)Nc1ccc(C(C)n2nc(C(F)(F)F)cc2C(F)(F)F)cc1C` (stereo partly drawn) [compound 562], for which the “controlling effect, rate of death” value in assay [1] and in assay [2] was 100% throughout.

On to `Cc1cc(C(C)n2nc(C(F)(F)F)cc2C(F)(F)F)ccc1NC(=O)c1cccc(I)c1C(=O)N[C@@H](C)C[S+](C)[O-]` (stereo partly drawn) [compound 563], for which the “controlling effect, rate of death” value in assay [1] and in assay [2] was 100% each time.

With `Cc1cc(C(C)n2nc(C(F)(F)F)cc2C(F)(F)F)ccc1NC(=O)c1cccc(I)c1C(=O)N[C@@H](C)CS(C)(=O)=O` (stereo partly drawn) [compound 564], the “controlling effect, rate of death” value in assay [1] and in assay [2] was 100% throughout.

For `CSCC(C)(C)NC(=O)c1c(I)cccc1C(=O)Nc1ccc(C(C)n2nc(C(F)(F)F)cc2C(F)(F)F)cc1C` (stereo not drawn) [compound 565], the “controlling effect, rate of death” value in assay [1] and in assay [2] was 100% throughout.

In the case of `Cc1cc(C(C)n2nc(C(F)(F)F)cc2C(F)(F)F)ccc1NC(=O)c1cccc(I)c1C(=O)NC(C)(C)C[S+](C)[O-]` (stereo not drawn) [compound 566], the “controlling effect, rate of death” value in assay [1] and in assay [2] was 100% throughout.
